Tests used:
[1] = target: T1, ALK kinase (Homo sapiens, UniProt Q9UM73); test: ALK kinase inhibition test; assay type: biochemical; settings: 0.4 ng/well ALK kinase, 5 µM ATP, fluorescence 665 nm/615 nm
T1 construct: purchased Thermo Scientific
Method: The inhibitory activity of the compound in the present application on ALK kinase will be determined through in vitro tests, which can be represented by IC50 value.
4 µL of the diluted solution of the test compound and 2 µL of 0.4 ng/well ALK kinase solution (Thermo Scientific) were added into reaction wells in turn, incubated for 10 min at room temperature, then 4 µL of 0.7 µM biotin-labeled tyrosine kinase substrate and 5 µM ATP solution were added to start the kinase reaction.
Software Graphpad Prism 6 was used to fit an IC50 curve and calculate an IC50 value.

[2] = tested on: human anaplastic large cell lymphoma cell Karpas 299; test: ALK gene fusion cell proliferation inhibition test (CCK-8); assay type: cell-based; settings: 72 hours incubation, CCK-8, absorbance at 450 nm
Method: The 96-well culture plate was placed in a 5 % carbon dioxide incubator at 37 °C to be cultured overnight. A test compound was formulated into a 10 mM storage solution with DMSO, and the 10mM storage solution was gradually diluted with DMSO at a dilution ration of 1:4 to obtain 9 concentration gradients of solutions of the test compound. The test compound was diluted with culture medium to 5 times the set final concentration of corresponding action, and the diluted solution of the test compound was added at 25 µL/well to corresponding cell wells according to the set compound layout, and then incubated in a 5 % carbon dioxide incubator at 37 °C for 72 hours. After 72 hours, 10 µL of CCK-8 was added into a cell culture medium, and the culture solution was sucked from adherent cells, then a freshly prepared CCK-8 detection solution was added and the cells were incubated in a 37 °C incubator for 1-4 hours. The absorbance at 450 nm wavelength on the SpectraMax i3X Microplate Reader was measured after gently shaking, with the absorbance at 650 nm as a reference.

T1 sequence (Q9UM73 19-1620): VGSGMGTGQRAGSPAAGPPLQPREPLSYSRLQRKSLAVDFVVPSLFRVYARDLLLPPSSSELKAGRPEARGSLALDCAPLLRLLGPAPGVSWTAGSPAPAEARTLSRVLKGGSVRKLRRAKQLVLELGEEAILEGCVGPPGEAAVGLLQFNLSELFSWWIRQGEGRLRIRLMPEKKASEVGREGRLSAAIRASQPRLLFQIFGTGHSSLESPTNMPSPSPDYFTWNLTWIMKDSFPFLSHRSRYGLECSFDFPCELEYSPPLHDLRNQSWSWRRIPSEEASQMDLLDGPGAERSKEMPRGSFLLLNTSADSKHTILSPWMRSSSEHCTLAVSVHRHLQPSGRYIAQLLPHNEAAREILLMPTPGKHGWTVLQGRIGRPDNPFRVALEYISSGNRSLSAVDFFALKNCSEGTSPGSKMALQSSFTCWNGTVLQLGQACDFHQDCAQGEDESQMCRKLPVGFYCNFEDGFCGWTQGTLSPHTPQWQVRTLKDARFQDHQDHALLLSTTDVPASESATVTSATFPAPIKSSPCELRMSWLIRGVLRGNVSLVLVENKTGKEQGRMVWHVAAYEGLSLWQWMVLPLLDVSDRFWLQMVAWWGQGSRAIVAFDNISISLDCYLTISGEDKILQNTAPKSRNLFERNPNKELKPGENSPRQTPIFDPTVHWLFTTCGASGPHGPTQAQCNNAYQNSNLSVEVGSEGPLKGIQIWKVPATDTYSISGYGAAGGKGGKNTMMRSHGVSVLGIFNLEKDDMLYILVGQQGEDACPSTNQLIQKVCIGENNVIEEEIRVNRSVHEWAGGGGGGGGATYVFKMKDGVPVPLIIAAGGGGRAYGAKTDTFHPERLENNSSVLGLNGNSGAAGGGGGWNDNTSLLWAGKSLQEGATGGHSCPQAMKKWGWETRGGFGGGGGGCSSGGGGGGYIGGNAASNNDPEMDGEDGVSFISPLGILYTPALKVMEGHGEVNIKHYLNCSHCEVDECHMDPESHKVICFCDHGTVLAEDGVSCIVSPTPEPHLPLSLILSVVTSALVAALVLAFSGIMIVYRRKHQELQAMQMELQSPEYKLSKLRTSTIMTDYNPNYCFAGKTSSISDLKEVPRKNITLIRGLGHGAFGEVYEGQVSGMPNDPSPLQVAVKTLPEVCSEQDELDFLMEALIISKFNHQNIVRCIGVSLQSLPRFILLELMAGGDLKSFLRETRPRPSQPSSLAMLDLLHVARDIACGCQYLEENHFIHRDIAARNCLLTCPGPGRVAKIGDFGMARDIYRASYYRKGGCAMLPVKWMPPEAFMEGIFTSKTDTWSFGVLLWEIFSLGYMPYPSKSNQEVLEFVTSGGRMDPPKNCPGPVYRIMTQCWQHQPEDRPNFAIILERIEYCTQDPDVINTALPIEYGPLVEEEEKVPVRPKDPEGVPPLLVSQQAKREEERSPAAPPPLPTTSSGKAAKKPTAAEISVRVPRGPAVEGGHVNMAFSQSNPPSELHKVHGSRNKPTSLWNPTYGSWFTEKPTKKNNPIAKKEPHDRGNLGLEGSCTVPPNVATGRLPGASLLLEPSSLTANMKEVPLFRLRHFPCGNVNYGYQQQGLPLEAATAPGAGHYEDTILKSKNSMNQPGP

Row | SMILES | IC50 [1] | IC50 [2]
1 | C#Cc1ccc2c3c([nH]c2c1)C(C)(C)c1cc(N2CCC(N4CCOCC4)CC2)c(CC)cc1C3=O [Example E1, 9-ethyl-3-ethynyl-6,6-dimethyl-8-(4-morpholinopiperidin-1-yl)-5,6-dihydro-11H-benzo[b]carbazol-11-one] | 5.09 nM | 7.34 nM
2 | C#Cc1ccc2c3c([nH]c2c1)C(C)(C)c1cc(N2CCN(C)CC2)c(CC)cc1C3=O [Example E2, 9-ethyl-3-ethynyl-6,6-dimethyl-8-(4-methylpiperazin-1-yl)-5,6-dihydro-11H-benzo[b]carbazol-11-one] | 7.38 nM | 18.1 nM
3 | C#Cc1ccc2c3c([nH]c2c1)C(C)(C)c1cc(N2CCN(C4CC4)CC2)c(CC)cc1C3=O [Example E3, 8-(4-cyclopropylpiperazin-1-yl)-9-ethyl-3-ethynyl-6,6-dimethyl-5,6-dihydro-11H-benzo[b]carbazol-11-one] | 37.8 nM | 144 nM
4 | C#Cc1ccc2c3c([nH]c2c1)C(C)(C)c1cc(N2CCC(N4CCC4)CC2)c(CC)cc1C3=O [Example E4, 8-(4-(azetidin-1-yl)piperidin-1-yl)-9-ethyl-3-ethynyl-6,6-dimethyl-5,6-dihydro-11H-benzo[b]carbazol-11-one] | 6.35 nM | 32.6 nM
5 | C#Cc1ccc2c3c([nH]c2c1)C(C)(C)c1cc(N2CCC(N4CCCC4)CC2)c(CC)cc1C3=O [Example E5, 9-ethyl-3-ethynyl-6,6-dimethyl-8-(4-(pyrrolidin-1-yl)piperidin-1-yl)-5,6-dihydro-11H-benzo[b]car bazol-11-one] | 13.8 nM | 24.9 nM
6 | C#Cc1ccc2c3c([nH]c2c1)C(C)(C)c1cc(N2CCC(N(C)C)CC2)c(CC)cc1C3=O [Example E6, 8-(4-(dimethylamino)piperidin-1-yl)-9-ethyl-3-ethynyl-6,6-dimethyl-5,6-dihydro-11H-benzo[b]car bazol-11-one] | 21 nM | 107 nM
7 | C#Cc1ccc2c3c([nH]c2c1)C(C)(C)c1cc(N2CCNCC2)c(CC)cc1C3=O [Example E7, 9-ethyl-3-ethynyl-6,6-dimethyl-8-(piperazin-1-yl)-5H-benzo[b]carbazol-11(6H)-one] | 7.41 nM | 40.3 nM
8 | C#Cc1ccc2c3c([nH]c2c1)C(C)(C)c1cc(C2CCNCC2)c(CC)cc1C3=O [Example E8, 9-ethyl-3-ethynyl-6,6-dimethyl-8-(piperidin-4-yl)-5,6-dihydro-11H-benzo[b]carbazol-11-one] | 6.6 nM | 109 nM
9 | C#Cc1ccc2c3c([nH]c2c1)C(C)(C)c1cc(C2CCN(C)CC2)c(CC)cc1C3=O [Example E9, 9-ethyl-3-ethynyl-6,6-dimethyl-8-(1-methylpiperidin-4-yl)-5,6-dihydro-11H-benzo[b]carbazol-11-one] | 8.11 nM | 54.2 nM
10 | C#Cc1ccc2c3c([nH]c2c1)C(C)(C)c1cc(C2CCN(C4CC4)CC2)c(CC)cc1C3=O [Example E10, 8-(1-cyclopropylpiperidin-4-yl)-9-ethyl-3-ethynyl-6,6-dimethyl-5,6-dihydro-11H-benzo[b]carbazol-11-one] | 20.5 nM | 208 nM
11 | C#Cc1ccc2c3c([nH]c2c1)C(C)(C)c1cc(N2CCC(N4CCN(C5CC5)CC4)CC2)c(CC)cc1C3=O [Example E11, 8-(4-(4-cyclopropylpiperazin-1-yl)piperidin-1-yl)-9-ethyl-3-ethynyl-6,6-dimethyl-5,6-dihydro-11 H-benzo[b]carbazol-11-one] | 59 nM | 186 nM
12 | C#Cc1ccc2c3c([nH]c2c1)C(C)(C)c1cc(N2CCC(N4CCOCC4)CC2)c(C#N)cc1C3=O [Example E12, 3-ethynyl-6,6-dimethyl-8-(4-morpholinopiperidin-1-yl)-11-oxo-6,11-dihydro-5H-benzo[b]carbazole-9-carbonitrile] | 6.78 nM | 8.71 nM
